Experimental data from patent US20080009506A1, “Imidazole Compound” (priority 2004, published 2008).

Tested on: rhythmic bladder contractions induced by substance P
Assay: Inhibitory effect on the rhythmic bladder contractions induced by substance P in anesthetized rats
Assay type: in vivo, Sprague-Dawley female rats
Conditions: 0.25 mg/kg, intravenous, urethane-anesthetized rats, substance P 0.33 μg/kg/min infusion
Description: For the experiments, Sprague-Dawley female rats (9 to 12 weeks old) weighing between 200 to 300 g were used. After urethane anesthetization (subcutaneously administered with a dose of 1.2 g/kg), cannulae were placed in both right and left femoral veins. One intravenous catheter was used for administration of compounds, and the other was for the substance P (0.33 μg/kg/min) infusion. We also cannulated into ureter to pass urine. Polyethylene catheters were inserted into carotid artery for continuous monitoring of arterial blood pressure and heart rate. For continuous infusion, transurethral bladder catheter was inserted into the bladder through the urethra and tied in place by a ligature around the urethral orifice. One end of the catheter was attached to a pressure transducer in order to measure intravesical pressure. The other end of the catheter was used for infusion of saline into the bladder. After stabilization of blood pressure and heart rate and after the bladder was emptied, cystometry was performed by filling the bladder slowly with about 0.6 ml of saline. After about 10 minutes, intravenous infusion of substance P (0.33 μg/kg/min) was started for stabilization of the micturition reflex. Compounds were administered after stable rhythmic bladder contraction was obtained over 15 minutes. […]

`NC(=O)c1ccc(-n2cc(C(F)(F)F)nc2-c2ccccc2)cc1` [Example 1 (Compound 4)] was tested, and the “100% inhibition time: time during which the frequency of the rhythmic contraction had been completely inhibited” value was 10.08 min.
